One data set has as its target T1, EGFR T790M/L858R (Homo sapiens, UniProt P00533, L858R/T790M).
T1 construct: purchased Invitrogen PR8911A
The data set is described as follows: Mutant EGFR T790M/L858R activity inhibition assay (Caliper mobility shift). As to conditions: read-out: enzyme activity inhibition (IC50) EGFR T790M/L858R. Format: biochemical. On the procedure: The assay procedure is as follows. […] 5 μl of the compound dissolved in 10% DMSO at a concentration of 5-fold of the final reaction concentration was added to a 384 well plate. 5 μl of 10% DMSO was used in a no-compound control well, while 5 μl of a kinase buffer was used in a no-enzyme activity control well. […] The conversion rate was read on Caliper EZ Reader II (Caliper Life Sciences). The conversion rate was then converted to inhibitory rate.
As used herein, “max” refers to the conversion rate of the DMSO no-compound control well, and “min” refers to the conversion rate of the no-enzyme activity control well. A curve was obtained by plotting the inhibitory rate as a function of the compound concentration. The XLFit excel add-in version 4.3.1 software was used to fit the curve and calculate the IC50. Inhibitory rate %=(max−conversion rate)/(max−min)×100.

A further data set has as its system H358. The data set is described as follows: Inhibition assay on tumor cell proliferation (CellTiter-Glo), H358. In kind it is cell-based, Human. As to conditions: H358 (wild-type EGFR), 72 hours, 10% bovine serum. As for the experimental part:
(§1) By using a CellTiter-Glo luminescence cell viability test kit (Promega, # G7572), the content of adenosine triphosphate (ATP) was determined to assess the cell viability.
(§2) Human colon cancer cell line LOVO and human non-small-cell lung cancer H358 express wild-type EGFR. Human non-small-cell lung cancer cell line HCC827 carries deletion mutation in exon 19 (ex19del). Those cell lines are purchased from Shanghai Fudan IBS Cell Resource Center and American Tissue Culture Collection (ATCC).
(§3) The assay procedure is as follows. The cells in a cell culture plate were digested with a pancreatic enzyme, re-suspended in a DPBS culture medium, and had the cell density counted by Scepter automated cytometer (Millipore # PHCC00000). The cells were diluted to a solution of 44,000 cells per ml. The cell solution with adjusted density was added to the cell assay plate at 90 microliters per well. The plate was placed in an incubator with 5% CO2 at 37° C. for 24 hours of incubation, and then added with different concentrations of subject compounds. The cells were incubated for 72 hours with the compounds in presence of 10% bovine serum. The content of ATP was determined by a CellTiter-Glo® Luminescent Cell Viability Assay kit (see the manufacturer's instruction for details) to evaluate cell-growth inhibition.
(§4) Briefly, 30 μl of CellTiter-Glo® reagent was added to each well, and then shaken for 10 minutes to induce cell lysis. The fluorescent signal was detected and recorded by Fluoroskan Ascent FL (Thermo). The max signal value was obtained from the cells treated by dimethyl sulfoxide for 72 hours. The min signal value was obtained from the medium alone (the number of the cells was 0). Inhibitory rate %=(max signal value−compound signal value)/(max signal value−min signal value)×100. The data was processed by GraphPad Prism V5.0 software (GraphPad Software, San Diego, Calif.). Sigmoidal dose-response curve fitting was performed to calculate the IC50 value.
(ATP-based viability assays read luminescence as a measure of living cells.)

A further data set concerns LOVO. The data set is described as follows: Inhibition assay on tumor cell proliferation (CellTiter-Glo), LOVO. Format: cell-based, Human. The note with it: LOVO (wild-type EGFR), 72 hours, 10% bovine serum. As for the experimental part:
as §1, §2, §3, §4

Another data set deals with H1975. The data set is described as follows: Inhibition assay on tumor cell proliferation (CellTiter-Glo), H1975. As to conditions: H1975 (L858R and T790M EGFR double mutation), 72 hours, 10% bovine serum. In kind it is cell-based, Human.
Data set [1] in a line: Pharmacokinetics in rats after oral administration. Format: in vivo, SD rats. The note with it: for AUC(0-inf) / Cmax / Tmax / half-life / AUC(0-t): male, SD, rat, 20 mg/kg, plasma; for AUC(0-t): read-out: AUC0-24. On the procedure:
Male SD rats weighing 250-300 g, or male beagles weighing 9-10 kg, were fasted overnight before the experiment. The object compounds were dissolved in 30% sulfobutylated beta-cyclodextrin (SBE-β-CD), and orally administrated to the rats at a dose of 20 mg/kg or to the beagles at a dose of 5 mg/kg. Blood samples were taken at 15 minutes, 30 minutes, 1 hour, 2 hours, 3 hours, 4 hours, 6 hours, 8 hours and 24 hours after administration. 0.3 ml of blood was collected at every time point, placed in a centrifuge tube containing K2-EDTA (ethylenediamine tetraacetic acid dipotassium) and centrifuged (2,000 g, 10 minutes, 4° C.) to collect plasma, which was then stored in an ultra cold storage freezer at −80° C. 50 μL of plasma sample was mixed with 5 μL of internal standard (IS), and then extracted with ethyl acetate. After vacuum drying, the residue was re-dissolved in acetonitrile. The sample was filtered and injected into LC-MS/MS for analysis.

In general, melting point refers to the temperature of the solid-liquid transition. A word on the AUC(0-inf): it is the area under the concentration-time curve extrapolated to infinity. In general, Cmax refers to the peak of the concentration-time curve. The Tmax is the time at which the peak concentration occurs. By half-life is commonly meant how long it takes for the measured level to halve. Read a high half-life as slow decline.

T1 sequence (P00533 25-1210 T790M/L858R): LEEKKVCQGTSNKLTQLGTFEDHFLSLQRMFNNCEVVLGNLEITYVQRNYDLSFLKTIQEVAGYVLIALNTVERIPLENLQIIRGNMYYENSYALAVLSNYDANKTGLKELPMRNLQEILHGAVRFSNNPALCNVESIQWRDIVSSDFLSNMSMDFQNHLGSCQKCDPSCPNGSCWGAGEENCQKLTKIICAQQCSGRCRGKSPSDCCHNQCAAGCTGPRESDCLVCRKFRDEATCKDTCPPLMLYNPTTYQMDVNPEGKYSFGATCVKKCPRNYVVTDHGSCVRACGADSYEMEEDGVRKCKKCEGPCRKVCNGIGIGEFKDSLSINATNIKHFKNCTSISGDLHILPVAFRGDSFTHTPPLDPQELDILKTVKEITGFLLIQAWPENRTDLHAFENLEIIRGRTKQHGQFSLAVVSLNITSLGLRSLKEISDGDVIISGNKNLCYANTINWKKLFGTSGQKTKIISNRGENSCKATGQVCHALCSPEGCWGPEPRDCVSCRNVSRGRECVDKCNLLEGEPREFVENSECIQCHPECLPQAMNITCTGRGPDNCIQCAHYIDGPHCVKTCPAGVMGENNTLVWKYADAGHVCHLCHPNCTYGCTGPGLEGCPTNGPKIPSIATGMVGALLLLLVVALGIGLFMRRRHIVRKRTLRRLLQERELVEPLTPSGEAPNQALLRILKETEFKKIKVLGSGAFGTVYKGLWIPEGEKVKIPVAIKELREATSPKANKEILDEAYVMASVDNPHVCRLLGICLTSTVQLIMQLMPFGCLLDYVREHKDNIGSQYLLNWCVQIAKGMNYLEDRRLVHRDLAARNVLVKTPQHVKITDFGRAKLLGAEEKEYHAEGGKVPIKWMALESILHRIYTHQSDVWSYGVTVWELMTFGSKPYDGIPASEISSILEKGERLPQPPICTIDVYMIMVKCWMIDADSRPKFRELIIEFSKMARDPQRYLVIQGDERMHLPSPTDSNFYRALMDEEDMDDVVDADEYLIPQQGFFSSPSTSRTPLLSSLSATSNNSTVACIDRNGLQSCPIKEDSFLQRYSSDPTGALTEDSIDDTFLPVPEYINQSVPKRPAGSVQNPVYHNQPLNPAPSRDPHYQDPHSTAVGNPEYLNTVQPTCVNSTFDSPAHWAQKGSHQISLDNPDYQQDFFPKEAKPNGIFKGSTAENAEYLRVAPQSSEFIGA

Consider `C=CC(=O)Nc1cc(Nc2nccc(-n3c(=O)n(C)c4cc(OC)ccc43)n2)c(OC)cc1N(C)CCN(C)C` [Compound 53, N-(2-((2-(dimethylamino)ethyl) (methyl)amino)-4-methoxy-5-((4-(5-methoxy-3-methyl-2-oxo-2,3-dihydro-1H-benzo[d]imidazol-1-yl)pyrimidin-2-yl)amino)phenyl)acryl amide], for which the IC50 is below 1 nM on EGFR T790M/L858R, 50 to 100 nM in the data set on H358, above 1000 nM with LOVO and 10 to 50 nM in the data set with H1975.

On to `C=CC(=O)Nc1cc(Nc2nccc(-n3ccc4cc([N+](=O)[O-])ccc43)n2)c(OC)cc1N(C)CCN(C)C` [Compound 34, N-{2-[(2-Dimethylamino-ethyl)-methyl-amino]-4-methoxy-5-[4-(5-nitro-indol-1-yl)-pyrimidin-2-ylamino]-phenyl}-acryl amide], for which the IC50 is 1 to 10 nM on EGFR T790M/L858R; 100 to 1000 nM in the data set on H358 (Homo sapiens, NCI-H358); above 1000 nM with LOVO (Homo sapiens); below 10 nM in the data set on H1975 (Homo sapiens, NCI-H1975).

The compound `C=CC(=O)Nc1cc(Nc2nccc(-n3ccc4nc(Cl)ccc43)n2)c(OC)cc1N(C)CCN(C)C` [Compound 124, N-(5-((4-(5-chloro-1H-pyrrolo[3,2-b]pyridin-1-yl)pyrimidin-2-yl)amino)-2-((2-(dimethylamino)ethyl)(methyl)amino)-4-methoxyphenyl)acrylamide] registered a melting point of 127 to 129 °C. For the same compound, at EGFR T790M/L858R, the IC50 is below 1 nM. In the data set on H358 (Homo sapiens, NCI-H358), this compound registered an IC50 of 100 to 1000 nM. Moreover, the IC50 in the data set with H1975 (Homo sapiens, NCI-H1975) was below 10 nM. Moreover, in data set [1], the “absorption / blood exposure after oral administration (in words)” value was “well absorbed, with high blood exposure”; the AUC(0-inf) was determined as 1790 ng·h/mL; the highest level (Cmax) was 327 ng/mL; the Tmax was found to be 1.7 h. Besides, in data set [1], the half-life was 6.1 h and the AUC(0-t) worked out at 1700 ng·h/mL.

On to `COc1cc(N(C)CCN(C)C)c(NC(=O)/C=C/CN2CCCCC2)cc1Nc1nccc(-n2ccc3ccccc32)n1` [Compound 70, (E)-N-(5-(4-(1H-indol-1-yl)pyrimidin-2-ylamino)-2-((2-(dimethylamino)ethyl)(methyl)amino)-4-methoxyphenyl)-4-(piperidin-1-yl)but-2-enamide], for which the IC50 on EGFR T790M/L858R is 1 to 10 nM; with H358 (Homo sapiens, NCI-H358), 100 to 1000 nM; with LOVO (Homo sapiens) it was 100 to 1000 nM; in the data set on H1975 (Homo sapiens, NCI-H1975) it was 100 to 1000 nM.

As for `C=CC(=O)Nc1cc(Nc2nccc(-n3c(=O)n(C(C)C)c4cc(OC)ccc43)n2)c(OC)cc1N(C)CCN(C)C` [Compound 138, N-(2-((2-(dimethylamino)ethyl)(methyl)amino)-5-((4-(3-isopropyl-5-methoxy-2-oxo-2,3-dihydro-1H-benzo[d]imidazol-1-yl)pyrimidin-2-yl)amino)-4-methoxyphenyl)acrylamide], the melting point fell in the range of 95 to 98 °C. In addition, the IC50 on EGFR T790M/L858R fell in the range of 1 to 10 nM. Further, the IC50 with H358 (Homo sapiens, NCI-H358) was in the range of 100 to 1000 nM. The same compound had an IC50 in the data set with H1975 (Homo sapiens, NCI-H1975) below 10 nM.

Turning to `C=CC(=O)Nc1cc(Nc2ncc(N(C)C)c(-n3c(=O)n(C(C)C)c4ccccc43)n2)c(OC)cc1N(C)CCN(C)C` [Compound 135, N-(5-((5-(dimethylamino)-4-(3-isopropyl-2-oxo-2,3-dihydro-1H-benzo[d]imidazol-1-yl)pyrimidin-2-yl)amino)-2-((2-(dimethylamino)ethyl)(methyl)amino)-4-methoxyphenyl)acrylamide], the melting point is 114.6 to 116.2 °C. The IC50 on EGFR T790M/L858R lay within 1 to 10 nM. Moreover, in the data set on H358 (Homo sapiens, NCI-H358), the IC50 was above 1000 nM. In the data set with H1975 (Homo sapiens, NCI-H1975), the IC50 was in the range of 10 to 50 nM.

Take `C=CC(=O)Nc1cc(Nc2nccc(-n3c(=O)n(C4CC4)c4cc(OC)ccc43)n2)c(OC)cc1N(C)CCN(C)C` [Compound 102, N-(5-((4-(3-cyclopropyl-5-methoxy-2-oxo-2,3-dihydro-1H-benzo[d]imidazol-1-yl)pyrimidin-2-yl)amino)-2-((2-(dimethylamino)ethyl)(methyl)amino)-4-methoxyphenyl)acrylamide]: the melting point fell in the range of 144 to 146 °C. At EGFR T790M/L858R, the IC50 is below 1 nM. This compound displayed an IC50 in the data set on H358 (Homo sapiens, NCI-H358) of 100 to 1000 nM. Besides, the IC50 in the data set on H1975 (Homo sapiens, NCI-H1975) was below 10 nM.

`C=CC(=O)Nc1cc(Nc2nccc(-n3ccc4cc(Cl)ccc43)n2)c(OC)cc1N(C)CCN(C)C` [Compound 31, N-(5-((4-(5-chloro-1H-indol-1-yl)pyrimidin-2-yl)amino)-2-((2-(dimethylamino)ethyl)(methyl)amino)-4-methoxyphenyl)acrylamide] had a melting point of 150 to 153 °C. On EGFR T790M/L858R, the IC50 is below 1 nM. The same compound showed an IC50 in the data set on H358 (Homo sapiens, NCI-H358) above 1000 nM. The IC50 in the data set with H1975 (Homo sapiens, NCI-H1975) is below 10 nM.

For `C=CC(=O)Nc1cc(Nc2nccc(-n3c(=O)n(C)c4ccccc43)n2)ccc1N(C)CCN(C)C` [Compound 125, N-(2-((2-(dimethylamino)ethyl)(methyl)amino)-5-((4-(3-methyl-2-oxo-2,3-dihydro-1H-benzo[d]imidazol-1-yl)pyrimidin-2-yl)amino)phenyl)acrylamide], the melting point lay in the range of 190 to 193 °C. Further, the IC50 at EGFR T790M/L858R was below 1 nM. Moreover, in the data set on H358 (Homo sapiens, NCI-H358), the IC50 lay in the range of 100 to 1000 nM. In the data set on H1975 (Homo sapiens, NCI-H1975), this compound showed an IC50 below 10 nM.

Compound `C=CC(=O)Nc1cc(Nc2nccc(-n3c(=O)n(CC=C(C)C)c4ccccc43)n2)c(OC)cc1N(C)CCN(C)C` [Compound 62, N-(2-((2-(dimethylamino)ethyl)(methyl)amino)-4-methoxy-5-(4-(3-(3-methylbut-2-enyl)-2-oxo-2,3-dihydro-1H-benzo[d]imidazol-1-yl)pyrimidin-2-ylamino)phenyl)acrylamide] gave a melting point of 187 to 188 °C. The IC50 on EGFR T790M/L858R is below 1 nM. The IC50 with H358 (Homo sapiens, NCI-H358) lay in the range of 100 to 1000 nM. Moreover, in the data set with H1975 (Homo sapiens, NCI-H1975), the IC50 is below 10 nM. Also, in data set [1], the “absorption / blood exposure after oral administration (in words)” value was “well absorbed, with high blood exposure”; the AUC(0-inf) turned out to be 920 ng·h/mL; the concentration peaked (Cmax) at 84 ng/mL; the Tmax was determined as 3.7 h. Moreover, in data set [1], the half-life was 6.8 h and the AUC(0-t) worked out at 834 ng·h/mL.

Compound `C=CC(=O)Nc1cc(Nc2nccc(-n3c(=O)n(C4CC4)c4cc(C#N)ccc43)n2)c(OC)cc1N(C)CCN(C)C` [Compound 101, N-(5-((4-(5-cyano-3-cyclopropyl-2-oxo-2,3-dihydro-1H-benzo[d]imidazol-1-yl)pyrimidin-2-yl)amino)-2-((2-(dimethylamino)ethyl)(methyl)amino)-4-methoxyphenyl)acrylamide] registered a melting point of 177 to 179 °C. Moreover, on EGFR T790M/L858R, the IC50 is below 1 nM. Also, the IC50 in the data set with H358 (Homo sapiens, NCI-H358) lay in the range of 100 to 1000 nM. Also, in the data set on H1975 (Homo sapiens, NCI-H1975), the IC50 is below 10 nM.

In turn, `C=CC(=O)Nc1cc(Nc2nccc(-n3c(=O)n(C(C)C)c4ccccc43)n2)c(C)cc1N(C)CCN(C)C` [Compound 127, N-(2-((2-(dimethylamino)ethyl)(methyl)amino)-5-((4-(3-isopropyl-2-oxo-2,3-dihydro-1H-benzo[d]imidazol-1-yl)pyrimidin-2-yl)amino)-4-methylphenyl)acrylamide] came in with a melting point of 179 to 181 °C. On EGFR T790M/L858R, the IC50 was below 1 nM. The IC50 in the data set with H358 (Homo sapiens, NCI-H358) was above 1000 nM. The compound also came in with an IC50 in the data set with H1975 (Homo sapiens, NCI-H1975) below 10 nM.

(Values after patent US11267802B2 (BEBETTER MED INC., priority 2015, dated 2022).)
